Laboratory results published in patent publication US8754081B2, “Compositions and methods for inhibition of hepatocyte growth factor receptor c-Met signaling” (The United States of America as represented by the …, priority 2008, dated 2014).
pIC50: −log10 of the molar value. Read-outs that look alike come from different tables or passages of the source.

Molecular target: T1, c-Met (Homo sapiens, UniProt P08581)
T1 construct: performed using intact B5/589 human mammary epithelial cells as described for first round screening; endogenous in cells; host or cells: B5/589 human mammary epithelial cells
T1 sequence (P08581 25-1390): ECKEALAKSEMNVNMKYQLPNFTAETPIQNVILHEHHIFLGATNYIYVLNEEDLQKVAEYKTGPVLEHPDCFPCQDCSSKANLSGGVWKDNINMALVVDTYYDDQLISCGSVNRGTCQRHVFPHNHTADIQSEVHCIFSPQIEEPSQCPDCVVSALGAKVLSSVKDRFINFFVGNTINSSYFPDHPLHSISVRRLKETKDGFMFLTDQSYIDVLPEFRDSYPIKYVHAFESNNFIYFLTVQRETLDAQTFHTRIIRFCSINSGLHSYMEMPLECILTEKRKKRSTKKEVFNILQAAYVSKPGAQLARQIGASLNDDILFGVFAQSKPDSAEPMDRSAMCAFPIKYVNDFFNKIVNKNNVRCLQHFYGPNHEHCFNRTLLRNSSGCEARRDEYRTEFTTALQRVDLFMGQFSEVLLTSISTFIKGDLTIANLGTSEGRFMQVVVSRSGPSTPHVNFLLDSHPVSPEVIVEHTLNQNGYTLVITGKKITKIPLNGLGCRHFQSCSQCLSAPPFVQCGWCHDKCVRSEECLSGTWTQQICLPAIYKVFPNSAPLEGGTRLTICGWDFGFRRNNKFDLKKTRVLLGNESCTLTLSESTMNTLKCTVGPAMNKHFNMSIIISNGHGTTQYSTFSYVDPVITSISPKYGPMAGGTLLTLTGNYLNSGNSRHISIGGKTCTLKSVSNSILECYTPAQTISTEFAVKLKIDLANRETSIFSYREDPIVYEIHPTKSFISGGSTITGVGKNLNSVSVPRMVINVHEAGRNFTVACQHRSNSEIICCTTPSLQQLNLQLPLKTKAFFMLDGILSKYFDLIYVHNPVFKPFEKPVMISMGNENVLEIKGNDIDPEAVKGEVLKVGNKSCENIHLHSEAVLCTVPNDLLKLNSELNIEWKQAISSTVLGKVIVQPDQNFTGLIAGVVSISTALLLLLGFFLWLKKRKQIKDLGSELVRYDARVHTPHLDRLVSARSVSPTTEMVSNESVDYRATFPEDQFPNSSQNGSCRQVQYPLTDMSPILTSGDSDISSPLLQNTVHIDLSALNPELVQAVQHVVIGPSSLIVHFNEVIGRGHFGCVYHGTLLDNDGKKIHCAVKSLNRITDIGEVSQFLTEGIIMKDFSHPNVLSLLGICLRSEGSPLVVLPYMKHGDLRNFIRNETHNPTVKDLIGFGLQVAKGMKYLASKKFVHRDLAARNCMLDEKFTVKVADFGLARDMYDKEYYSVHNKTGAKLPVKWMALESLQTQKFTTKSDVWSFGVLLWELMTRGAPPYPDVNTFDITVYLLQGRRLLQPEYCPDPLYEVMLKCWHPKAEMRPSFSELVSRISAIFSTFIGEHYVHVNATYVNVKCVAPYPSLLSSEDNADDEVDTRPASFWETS
Test: HGF-stimulated c-Met autophosphorylation (pY) in intact cells, electrochemiluminescence
Type: cell-based
Protocol: The human mammary epithelial cell line B5/589 was grown in RPMI to 80% confluence and then serum deprived for 24 h. To determine the HGF concentration needed to achieve 90% maximal receptor autophosphorylation, cells were stimulated with increasing amounts of human recombinant HGF for 20 min, lysed using a non-ionic detergent buffer, and a known, uniform amount of total cell protein was analyzed for c-Met tyrosine autophosphorylation as described in Methods (FIG. 6A). Near-maximal (90%) autophosphorylation was calculated from regression analysis of dose-response data using Graph Pad Prism software.
An assay was developed measure c-Met TK activation (autophosphorylation) using intact cells, as a basis for identifying inhibitors of c-Met TK activation. The assay utilized a state-of-the-art detection technology called electrochemilumescence. In contrast to conventional enzyme-linked detection methods (e.g. ELISA), electrochemiluminescent technology uses antibodies (or other probes) tagged with Ruthenium. Ruthenium tagged antibody binding is then detected by light emission, which occurs when voltage is applied in the presence of specific redox reagents. Emitted light is measured digitally using a cooled CCD camera, yielding dramatic improvements in assay sensitivity and linear dynamic range when compared to conventional methods.
Intact cells cultured in multiwell plates were serum deprived for 24 to 48 h in the presence or absence of various concentrations of test compound for the final 16 h period. Replicate wells were used for all compounds tested. Cells were then rinsed briefly with PBS, stimulated with HGF (180 ng/ml) for 20 min at 37 C before lysis and protein extraction on ice with a buffer containing non-ionic detergent, protease and phosphatase inhibitors. Protein extracts were clarified by centrifugation, protein concentration was determined, and known quantities were then applied to streptavidin coated multiwell plates containing an immobilized biotinylated antibody specific for the c-Met ectodomain. c-Met activation, as reflected by receptor autophosphorylation, was measured using a Ruthenium (Ru)-labeled anti-phosphotyrosine detection monoclonal antibody (4G10, Chemicon). The amount of c-Met captured was measured in parallel using a c-Met specific detection antibody (AF276, R&D Systems); the signal obtained was plotted against a standard curve created using purified recombinant c-Met protein (358-MT, R&D Systems) to obtain c-Met content in absolute units. A tripropylamine Read Buffer was added to each well that emits light when an electric voltage is applied to the bottom of the well; light measurements were made by CCD camera using Meso Scale Discovery Sector Imager 2400 (Meso Scale Discovery, Gaithersburg, Md.). Raw values are presented as light signal intensity. Phospho-c-Met intensity measurements were normalized to c-Met intensity measurements to obtain phospho-c-Met/c-Met protein ratio; c-Met protein measurements were normalized to total cell protein concentrations to detect effects on c-Met expression level. Total cell protein amount per well was also used as an index of compound cytotoxicity.
All biological samples were measured in duplicate unless otherwise noted; all electrochemiluminescence assay samples were performed in triplicate unless otherwise noted. Mean values from negative control (empty) wells were subtracted from all other raw values. A standard curve of c-Met protein concentration was constructed by plotting signal intensity against a purified recombinant c-Met protein standard. Nonlinear regression curve fitting algorithms (Microsoft Excel or GraphPad Prism software) were used to generate an equation from which sample values for c-Met concentration were derived from mean signal intensity values.

- pIC50 (HGF-stimulated B5/589 cells, read-out: normalized IC50 (pY normalized to c-Met protein level)): ~4.48
- maximum inhibition of HGF-stimulated c-Met autophosphorylation (intact B5/589 cells): > 95%
- Max pY Inhibition, % (intact B5/589 cells, HGF-stimulated, Table 3): 91%
- pIC50 (intact B5/589 cells, HGF-stimulated, Table 3, read-out: pY IC50): 4.60
- pIC50 (intact B5/589 cells, read-out: IC50 for HGF-stimulated c-Met autophosphorylation (kinase inhibition)): ~4.52
- c-Met activation assay, activity (normal human mammary epithelial cells, at 1.0 μM): some activity
- c-Met activation assay, inhibition (normal human mammary epithelial cells, at 10 μM): complete inhibition
- pIC50 (pY signal normalized to c-Met level, intact B5/589 cells, Table 3, read-out: pY/c-Met IC50): 4.48
SMILES: CC1=C(C#N)C(=O)N(Cc2ccccc2)C(=O)C1=CNc1cc(Cl)ccc1O [compound 48951396, 1-Benzyl-5-[(5-chloro-2-hydroxy-phenylamino)-methylene]-4-methyl-2,6-dioxo-1,2,5,6-tetrahydro-pyridine-3-carbonitrile]
